Assay [1] deals with type II collagen-induced arthritis. The assay is described as follows: Effects of PDT on model mice with type II collagen-induced arthritis. The class given is in vivo. The conditions noted are these: 5 mg/kg i.v. The procedure: Test 2 (in vivo Test): Effects of PDT on Model Mice with Type II Collagen-Induced Arthritis Male DBA/1 mice, aged6 to 8 weeks and weighing 15 to 18 g, were used. Arthritis was induced by type II collagen according to the following schedule. On Day 0, 2 mg. of anti-type II collagen antibody cocktail was intraperitoneally injected. On Day 1, 2 mg of anti-type II collagen antibody cocktail was again intraperitoneally injected. On Day 2 and Day 3, 50 μg of lipopolysaccharide (LPS) was intraperitoneally injected to induce type II collagen arthritis. On Day 5, induction of type II collagen arthritis was confirmed. A test group of 5 animals and a control group of 3 animals were intravenously injected with 5 mg/kg of ATX-S10•Na. The test group was exposed to laser irradiation (dose: 30 J/cm^2) 3 hours after administration of ATX-S10•Na. […] Each animal was perfusion-fixed, and joint tissue was collected and stained with Safranin 0. The resulting decalcified tissue sample was subjected to histological analysis.

Assay [2] has as its system TPA-caused dermatitis. The assay is described as follows: TPA-induced dermatitis in mouse skin: skin accumulation and PDT after ATX-S10•Na ointment. The class given is in vivo, mice. Particulars: 1% ointment, 3 hours. The procedure:
Test 4 (in vivo Test): Induction of Dermatitis in Mouse Skin by Treatment with Tetradecanoyl Phorbol Acetate (TPA) and Therapeutic Effects of PDT Following Application of ATX-S10•Na Ointment Using a hydrophilic ointment base described in Japanese Pharmacopoeia, two hydrophilic ointments, one containing 1% of ATX-S10•Na and the other 10% of the compound, were prepared by a common pharmaceutical technique. Male DBA/1 mice, aged 6 to 8 weeks and weighing 15 to 18 g, were shaved with a clipper and a razor. TPA was then applied to the skin to induce dermatitis. 3) To a test group, the hydrophilic ointment containing 1% ATX-S10•Na was applied. The ointment was applied to the region of the skin where dermatitis was induced and was rinsed off after 3 hours. To a control group, an ATX-S10•Na-free hydrophilic ointment was applied and was also rinsed off after application. […] The test group was then divided into two subgroups: one group was irradiated with laser at 100 J/cm^2 and the other group was not irradiated. Skin histology of each animal was observed.

Assay [3] concerns Keratinocytes from a patient with inflammatory keratosis. The assay can be described thus: Cytotoxicity of PDT against cultured keratinocytes. The class given is cell-based, human. Particulars: 50 μg/mL; laser 10 J/cm^2; 6 hours after laser irradiation; viable cells prior to irradiation = 100%. The procedure: FIG. 6 is a graph showing cytotoxic effects of PDT using ATX-S10•Na of the present invention on cultured keratinocytes. 50 μg/mL of ATX-S10•Na of the present invention was added to the cell culture. After a predetermined culture period, the cells were washed with PBS and were irradiated with laser at 10 J/cm^2. The viability of the keratinocytes was determined 1, 2, 3, 6, 12, and 24 hours after the irradiation and was plotted on a graph.
Test 3 (in vitro Test): Cytotoxicity Against Cultured Keratinocytes
Keratinocytes were collected from a patient with inflammatory keratosis and were cultured at 37° C. for 24 hours. To the cell culture, 50 μg/mL of ATX-S10•Na of the present invention was added and the cells were further cultured under the same conditions.
Assuming the initial number of the viable cells in the culture medium prior to laser irradiation to be 100%, the viability of the cells was determined at 1, 2, 3, 6, 12, and 24 hours after the irradiation. As shown, 75% of the keratinocytes incubated with ATX-S10•Na died 6 hours after laser irradiation.

For assay [4], the system named is Human Umbilical Vein Endothelial Cells (HUVECS). The assay can be described thus: Effects of PDT on inflamed human umbilical vein endothelial cells (MTT viability). Format: cell-based. Particulars: non-irradiated groups (0 J/cm^2); 25 or 50 μg/mL. The procedure: Test 1 (in vitro Test): Effects of PDT on Human Umbilical Vein Endothelial Cells (HUVECS)
As a first step, we determined if cell death of inflamed HUVECs can be induced by PDT.
HUVECs were seeded in a culture medium at […]. After a predetermined culture period, IL-1β(1 ng/mL) and TNF-α(10 ng/mL) were added to stimulate the cells and, thus, cause inflammation of the cells. After a 1-hour stimulation period, the cells were divided into two groups, and 25 μg/ml of ATX-S10•Na of the present invention was added to one group and 50 μg/ml of ATX-S10•Na to the other group. Subsequently, the cells were incubated at 37° C. for 24 hours.
After the incubation period, laser was irradiated onto the cultured cells (each dosage group was divided into five subgroups, which were irradiated at 0, 15, 30, 50, and 100 J/cm^2). 24 hours after the irradiation, the viability of HUVECs was determined by MTT assay.

Structures are written as SMILES.

Take `C=CC1=C(C)C2=CC3=C(/C=C/NO)C(C)(O)C(=CC4=NC(=CC5=NC(=CC1=N2)C(C)=C5CCC(=O)N[C@@H](CC(=O)[O-])C(=O)[O-])C(CCC(=O)N[C@@H](CC(=O)[O-])C(=O)[O-])=C4C)N3.[Na+].[Na+].[Na+].[Na+]` (stereo partly shown) [ATX-S10•Na]: the “synovial infiltration (histological analysis of joint tissue)” value is “synovial infiltration was suppressed” in assay [1] (laser 30 J/cm^2, test group) and “significant infiltration of synovial cells” in assay [1] (no laser irradiation (control group)). Also, the clinical arthritis score in assay [1] (no laser irradiation (control group), Day 14) turned out to be 4. Besides, the “TPA-caused dermatitis inflamed region (skin histology)” value in assay [2] (laser 100 J/cm^2) is “significant decrease in the inflamed region”; in assay [2] (non-irradiated group), “sustained”. Further, in assay [3], the keratinocytes died is listed as 75%. For the same molecule, the “cell death of HUVECs” value in assay [4] is “no cell death was observed”.

These data come from US20050209298A1, “Method of photodynamic diagnosis for vascular diseases” (HAMAMATSU PHOTONICS K.K, priority 2002, published 2005).
